We go through 37 molecules from ChEMBL document CHEMBL4483862, “Open-source discovery of chemical leads for next-generation chemoprotective antimalarials” (2018).

The test system of this test is Plasmodium berghei. Kind of test: Luciferase/luciferin-expressing antifolate-resistant parasites were used to infect a culture of HepG2 cells that were pre-incubated with compounds. Infected hepatocytes emit light due to the luciferase reaction. Assay results are presented as the percent inhibition of light emission compared to control. […]. It counts as functional. As to conditions: sporozoite; for IC90: read-out: LUCIFERASE INFECTION ASSAY - IC90.

The mark [1] stands for this setting: read-out: LUCIFERASE INFECTION ASSAY - IC50.

As for `Oc1cccc(-c2cnc3cnc(-c4ccc(Cl)cc4Cl)cn23)c1`, the IC90 was 2.14 µM. For the same molecule, the IC50 (HEPG2TOX_HILL_SLOPE 1.62, HEPG2TOX_R_SQUARED 0.949, PBLUC_HILL_SLOPE 1.81, PBLUC_R_SQUARED 0.693, read-out: LUCIFERASE INFECTION ASSAY - IC50) came to 0.634 µM.
Regarding `O=[N+]([O-])c1cc(C(F)(F)F)ccc1N1CCCN(C(=S)Nc2cccc(C(F)(F)F)c2)CC1`, the IC90 was more than 6.7 µM. Also, the IC50 (FFLUC_HILL_SLOPE 18.8, FFLUC_R_SQUARED 0.397, HEPG2TOX_HILL_SLOPE 0.504, HEPG2TOX_R_SQUARED 0.366, read-out: LUCIFERASE INFECTION ASSAY - IC50) is more than 6.7 µM.
As to `COc1ccc(N(CC(=O)Nc2ccc(Cl)cc2Cl)S(=O)(=O)c2cccs2)cc1`, the IC90 turned out to be 3.69 µM. Besides, the IC50 (HEPG2TOX_HILL_SLOPE 1.66, HEPG2TOX_R_SQUARED 0.962, PBLUC_HILL_SLOPE 19.1, PBLUC_R_SQUARED 0.554, read-out: LUCIFERASE INFECTION ASSAY - IC50) is 3.29 µM.
For `CN(C)c1cccc(-c2cnc(N)c(-c3ccc(O)cc3)c2)c1`, the IC90 was more than 10.8 µM. Where the note is “PBLUC_HILL_SLOPE 24.2, PBLUC_R_SQUARED 0.305, read-out: LUCIFERASE INFECTION ASSAY - IC50”, the IC50 was 10.5 µM.
With `Cc1ccc2nc(NC(=O)c3ccc(C#N)cc3)c(C(=O)NC3CCCC3)n2c1`, the IC90 came to 0.336 µM. Further, the half-inhibitory concentration (IC50) (FFLUC_HILL_SLOPE 93.7, FFLUC_R_SQUARED 0.282, HEPG2TOX_HILL_SLOPE 0.845, HEPG2TOX_R_SQUARED 0.968, PBLUC_HILL_SLOPE 14.4, PBLUC_R_SQUARED 0.874, read-out: LUCIFERASE INFECTION ASSAY - IC50) amounted to 0.288 µM.
On to `CC(=O)NC(C)CCc1ccc(C(=O)Cn2ncc(Cl)c(Cl)c2=O)cc1` (centres undefined), for which the IC90 came to 9.36 µM. Further, under “HEPG2TOX_HILL_SLOPE 9.09, HEPG2TOX_R_SQUARED 0.148, PBLUC_HILL_SLOPE 4.21, PBLUC_R_SQUARED 0.695, read-out: LUCIFERASE INFECTION ASSAY - IC50”, the IC50 is 5.55 µM.
`N#Cc1ccc(C=C(C(=O)NCc2ccccc2)C(=O)NCc2ccccc2)cc1`: the IC90 was more than 10 µM. In addition, the IC50 under setting [1] was more than 10 µM.
As for `N#CC1(c2ccccc2)C/C(=C\c2cccnc2)C(=O)/C(=C/c2cccnc2)C1` (centres undefined), the IC90 was 4.83 µM. In addition, the IC50 (HEPG2TOX_HILL_SLOPE 15.6, HEPG2TOX_R_SQUARED 0.458, PBLUC_HILL_SLOPE 155, PBLUC_R_SQUARED 0.194, read-out: LUCIFERASE INFECTION ASSAY - IC50) came to 4.76 µM.
With `Cn1cc(/C=C/C(=O)Nc2ncc(Cc3ccccc3)s2)cn1`, the IC90 was found to be 2.15 µM. For the same molecule, the IC50 (HEPG2TOX_HILL_SLOPE 0.97, HEPG2TOX_R_SQUARED 0.894, PBLUC_HILL_SLOPE 1.67, PBLUC_R_SQUARED 0.671, read-out: LUCIFERASE INFECTION ASSAY - IC50) was 0.578 µM.
With `CC(C)[C@H](NC(=O)c1ccccc1Cl)C(=O)Nc1nc(-c2ccccn2)cs1`, the IC90 amounted to 6.36 µM. Moreover, for the setting “HEPG2TOX_HILL_SLOPE 4.61, HEPG2TOX_R_SQUARED 0.937, PBLUC_HILL_SLOPE 2.78, PBLUC_R_SQUARED 0.749, read-out: LUCIFERASE INFECTION ASSAY - IC50”, the IC50 turned out to be 2.89 µM.
Take `Cc1cc2oc(=O)cc(CN(Cc3ccc(C(=O)NC4CC4)cc3)Cc3ccco3)c2cc1C`: the IC90 stood at 1.83 µM. The IC50 (PBLUC_HILL_SLOPE 3.23, PBLUC_R_SQUARED 0.675, read-out: LUCIFERASE INFECTION ASSAY - IC50) was 0.928 µM.
On to `Cc1ccsc1CN(C)C(C)C(=O)Nc1cc(C(F)(F)F)ccc1N1CCOCC1` (centres undefined), for which the IC90 is more than 10 µM. Besides, the IC50 (PBLUC_HILL_SLOPE 0.840, 16.2, PBLUC_R_SQUARED 0.288, 0.265, read-out: LUCIFERASE INFECTION ASSAY - IC50) was more than 10 µM.
Turning to `O=C(Nc1ccc(OCc2nnnn2-c2ccccc2)cc1)c1ccccc1`, the IC90 is more than 8.89 µM. Moreover, the IC50 under setting [1] was more than 8.89 µM.
For the molecule `Cc1ccc(-c2nc(CN3C(=O)NC4(CCCCCC4)C3=O)cs2)cc1`, the IC90 was more than 10 µM. Also, where the note is “PBLUC_HILL_SLOPE 31.5, PBLUC_R_SQUARED 0.344, read-out: LUCIFERASE INFECTION ASSAY - IC50”, the IC50 worked out at 9.91 µM.
For `CC1SC(=Nc2ccc(S(=O)(=O)N3CCOCC3)cc2)NN=C1C12CC3CC(CC(C3)C1)C2` (centres undefined), the IC90 was more than 10 µM. Also, the IC50 under setting [1] was more than 10 µM.
As to `Cc1onc(-c2ccccc2)c1-c1ccnc(-c2ccc(Cl)cc2)n1`, the IC90 was determined as 4.54 µM. For the setting “HEPG2TOX_HILL_SLOPE 2.45, HEPG2TOX_R_SQUARED 0.972, PBLUC_HILL_SLOPE 2.42, PBLUC_R_SQUARED 0.716, read-out: LUCIFERASE INFECTION ASSAY - IC50”, the IC50 was found to be 1.83 µM.
Take `O=C(CN1CCN(C(c2ccc(F)cc2)c2ccc(F)cc2)CC1)Nc1nnc(-c2ccccc2)o1`: the IC90 was found to be 1.43 µM. For the same molecule, the IC50 under setting [1] was determined as 1.23 µM.
Regarding `COC(=O)c1ccc(N2CCN(c3ccccc3Cl)CC2)nc1`, the IC90 was more than 9.95 µM. Besides, the IC50 (HEPG2TOX_HILL_SLOPE 4.29, HEPG2TOX_R_SQUARED 0.95, PBLUC_HILL_SLOPE 9.99, PBLUC_R_SQUARED 0.342, read-out: LUCIFERASE INFECTION ASSAY - IC50) was 8.41 µM.
As to `CSc1nnc(-c2ccc(C(C)(C)C)cc2)n1C`, the IC90 is more than 12.6 µM. Besides, the IC50 under setting [1] is more than 12.6 µM.
Take `COc1ccc(-c2cc(-c3nnc4n3CCCCC4)c3c(C)nn(-c4ccccc4)c3n2)cc1`: the IC90 was more than 10 µM. In addition, the 50% inhibitory concentration (IC50) (PBLUC_HILL_SLOPE 3.73, PBLUC_R_SQUARED 0.529, read-out: LUCIFERASE INFECTION ASSAY - IC50) worked out at 5.69 µM.
With `CC(C)Nc1nc(-c2ccccc2CO)c2sc(-c3ccccc3)cc2n1`, the IC90 is 0.949 µM. Also, the IC50 (HEPG2TOX_HILL_SLOPE 1.93, HEPG2TOX_R_SQUARED 0.921, PBLUC_HILL_SLOPE 16.9, PBLUC_R_SQUARED 0.634, read-out: LUCIFERASE INFECTION ASSAY - IC50) was 0.833 µM.
As to `COCCn1c(C(=O)OC)c(NC(=O)c2ccco2)c2cc(NCCc3ccccc3)cnc21`, the IC90 is more than 7.14 µM. The IC50 (PBLUC_HILL_SLOPE 0.526, PBLUC_R_SQUARED 0.429, read-out: LUCIFERASE INFECTION ASSAY - IC50) came out at 4.07 µM.
As to `Cc1ccc(CN2CCC3(CC2)C(=O)N(C(C)C)C(=O)N3CCc2ccccc2)o1`, the IC90 is more than 8.06 µM. Further, the IC50 (HEPG2TOX_HILL_SLOPE 8.85, HEPG2TOX_R_SQUARED 0.516, read-out: LUCIFERASE INFECTION ASSAY - IC50) is more than 8.06 µM.
As to `O=C(Nc1cccc(NC(=O)c2cc(C3CC3)nc3c2nc2n3CCCCC2)c1)c1ccco1`, the IC90 is more than 10 µM. Moreover, the IC50 under setting [1] was more than 10 µM.
`CCCCCCN(C(=O)Cn1ccsc1=N)c1nc(-c2ccccc2)cs1`: the IC90 is more than 10 µM. Moreover, the IC50 (FFLUC_HILL_SLOPE 258, FFLUC_R_SQUARED 0.634, read-out: LUCIFERASE INFECTION ASSAY - IC50) was more than 10 µM.
With `O=C(CN(Cc1ccco1)S(=O)(=O)c1ccccc1F)Nc1ccc(SC(F)F)cc1`, the IC90 was more than 10 µM. The IC50 (PBLUC_HILL_SLOPE 1.6, PBLUC_R_SQUARED 0.718, read-out: LUCIFERASE INFECTION ASSAY - IC50) is 3.47 µM.
On to `OC(c1ccc(F)c(Cl)c1)c1nnc(Nc2cc(C(F)(F)F)ccc2F)s1` (centres undefined), for which the IC90 is more than 10 µM. For the same molecule, the IC50 (PBLUC_HILL_SLOPE 15.9, PBLUC_R_SQUARED 0.206, read-out: LUCIFERASE INFECTION ASSAY - IC50) is 9.29 µM.
As to `CC1N(C)c2ccc(/C=C/c3cc[n+](C)cc3)cc2C1(C)C` (centres undefined), the IC90 came to 4.04 µM. Besides, the IC50 under setting [1] was found to be 3.32 µM.
Consider `Cc1ccc(-n2nnnc2SCc2nc(-c3ccc(C)c(F)c3)no2)c(C)c1`, for which the IC90 was more than 10 µM. Besides, the IC50 under setting [1] was more than 10 µM.
Regarding `O=C(Nc1nc(-c2cccs2)cs1)c1c[nH]c(C(=O)N2CCCC2)c1`, the IC90 is more than 10 µM. Moreover, the IC50 under setting [1] was more than 10 µM.
With `CN(C)C(=O)c1ccc(-c2cc3c(Nc4cccc(N(C)C)c4)nccc3n2C)cc1`, the IC90 is more than 10 µM. Also, the IC50 under setting [1] is more than 10 µM.
Regarding `Cc1nc2ncnn2c(Nc2cccc(Cl)c2C)c1Cl`, the IC90 was more than 10.7 µM. Further, under “HEPG2TOX_HILL_SLOPE 3, HEPG2TOX_R_SQUARED 0.869, PBLUC_HILL_SLOPE 3.03, PBLUC_R_SQUARED 0.114, read-out: LUCIFERASE INFECTION ASSAY - IC50”, the IC50 was determined as 5.55 µM.
Consider `Cc1cc(C(C)(C)C)cc(C(C)(C)C)[s+]1`, for which the IC90 is 7.78 µM. The IC50 (HEPG2TOX_HILL_SLOPE 3.48, HEPG2TOX_R_SQUARED 0.99, PBLUC_HILL_SLOPE 2.71, PBLUC_R_SQUARED 0.511, read-out: LUCIFERASE INFECTION ASSAY - IC50) was found to be 3.46 µM.
As for `CC(=O)CSc1nnc(-c2ccc(C(C)(C)C)cc2)n1-c1ccc(Cl)cc1`, the IC90 was more than 8.25 µM. Also, the half-inhibitory concentration (IC50) (PBLUC_HILL_SLOPE 12.6, PBLUC_R_SQUARED 0.0257, read-out: LUCIFERASE INFECTION ASSAY - IC50) was determined as 7.82 µM.
Turning to `O=C(NCc1ccccc1)/C(=C/c1ccc(OCc2ccccc2)cc1)c1nc2ccccc2[nH]1`, the IC90 came out at 1.26 µM. Further, where the note is “FFLUC_HILL_SLOPE 9.07, FFLUC_R_SQUARED 0.413, PBLUC_HILL_SLOPE 2.18, PBLUC_R_SQUARED 0.79, read-out: LUCIFERASE INFECTION ASSAY - IC50”, the IC50 is 0.462 µM.
Consider `CC(C)N(C(=O)COC(=O)c1ccccc1-c1nc2ccccc2s1)c1ccccc1`, for which the IC90 was more than 10 µM. For the same molecule, under “PBLUC_HILL_SLOPE 20.1, PBLUC_R_SQUARED 0.325, read-out: LUCIFERASE INFECTION ASSAY - IC50”, the IC50 was 9.13 µM.
With `N#CC(C(=O)COC(=O)c1cn(-c2ccccc2)nc1-c1ccccc1)=C1Nc2ccccc2N1`, the IC90 is more than 10 µM. Besides, the IC50 under setting [1] was more than 10 µM.
